Inhibition data for 25 compounds are collected here from patent US8283361B2 (AstraZeneca AB, priority 2008, dated 2012).

The target of this assay is S. aureus GyrB ATPase (Staphylococcus aureus, UniProt P0A0K8). Nature of the assay: biochemical. The conditions noted are these: compound at 1 μM; one value per test if tested more than once; read-out: % Inhibition of S. aureus GyrB ATPase. In a few lines: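 IC50 values derive from 10-point titrations of compound (in DMSO). Phosphate formed from 250 μM ATP was quantified by acidic molybdate/malachite green after quenching.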

In general, inhibition refers to the drop in the measured response relative to a control, in per cent.

The structures appear in SMILES notation.

Sequence of S. aureus GyrB ATPase (P0A0K8 whole entry): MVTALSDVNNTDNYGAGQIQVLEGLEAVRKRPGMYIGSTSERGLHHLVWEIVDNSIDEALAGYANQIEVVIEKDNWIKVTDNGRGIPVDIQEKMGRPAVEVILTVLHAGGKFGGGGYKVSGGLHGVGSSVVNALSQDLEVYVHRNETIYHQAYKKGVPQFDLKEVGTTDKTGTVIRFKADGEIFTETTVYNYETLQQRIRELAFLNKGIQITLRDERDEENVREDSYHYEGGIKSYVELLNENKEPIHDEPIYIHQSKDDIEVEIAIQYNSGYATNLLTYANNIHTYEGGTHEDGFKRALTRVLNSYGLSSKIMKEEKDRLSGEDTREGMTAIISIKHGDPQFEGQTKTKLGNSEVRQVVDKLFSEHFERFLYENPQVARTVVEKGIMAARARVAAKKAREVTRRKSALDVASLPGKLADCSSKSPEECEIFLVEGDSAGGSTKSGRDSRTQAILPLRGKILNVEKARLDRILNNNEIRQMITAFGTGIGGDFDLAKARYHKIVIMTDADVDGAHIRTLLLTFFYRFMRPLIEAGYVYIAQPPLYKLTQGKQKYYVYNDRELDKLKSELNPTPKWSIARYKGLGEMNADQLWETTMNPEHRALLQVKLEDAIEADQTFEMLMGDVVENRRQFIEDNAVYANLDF
Sequence of S. aureus GyrB ATPase (P0AES4 whole entry, further chain): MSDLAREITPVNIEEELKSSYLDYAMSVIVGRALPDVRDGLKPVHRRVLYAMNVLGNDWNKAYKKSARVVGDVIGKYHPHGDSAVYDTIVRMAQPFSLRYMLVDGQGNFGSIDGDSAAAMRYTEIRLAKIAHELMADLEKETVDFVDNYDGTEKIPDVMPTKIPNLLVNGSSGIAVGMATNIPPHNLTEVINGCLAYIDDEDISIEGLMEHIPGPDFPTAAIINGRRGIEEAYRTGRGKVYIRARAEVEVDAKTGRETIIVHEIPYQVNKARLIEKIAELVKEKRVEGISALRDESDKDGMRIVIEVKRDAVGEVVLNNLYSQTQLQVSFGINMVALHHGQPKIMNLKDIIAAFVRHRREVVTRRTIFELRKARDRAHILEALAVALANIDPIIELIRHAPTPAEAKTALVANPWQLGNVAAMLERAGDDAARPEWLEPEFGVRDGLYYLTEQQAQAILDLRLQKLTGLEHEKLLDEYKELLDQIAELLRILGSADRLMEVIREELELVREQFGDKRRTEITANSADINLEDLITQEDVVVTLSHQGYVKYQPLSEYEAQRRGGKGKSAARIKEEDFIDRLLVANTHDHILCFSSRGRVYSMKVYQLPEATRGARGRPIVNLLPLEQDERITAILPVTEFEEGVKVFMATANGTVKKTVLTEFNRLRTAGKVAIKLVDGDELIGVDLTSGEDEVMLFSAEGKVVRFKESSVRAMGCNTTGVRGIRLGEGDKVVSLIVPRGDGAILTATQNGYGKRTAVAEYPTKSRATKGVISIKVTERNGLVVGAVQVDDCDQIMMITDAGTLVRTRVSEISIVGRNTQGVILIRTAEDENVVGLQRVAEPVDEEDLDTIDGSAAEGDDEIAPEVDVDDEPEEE

With `CC(C)NC(=O)Nc1cc(-c2nc(C(F)(F)F)cs2)c(-c2ccc3c(c2)c(=O)c(C(=O)NCCO)cn3CCN2CCN(C)CC2)cn1` [Example 212], the inhibition at 1 µM stood at 94%. The same measure for `CCCNC(=O)Nc1cc(-c2nc(C(F)(F)F)cs2)c(-c2ccc3c(c2)c(=O)c(C(=O)NCCO)cn3CCC2CCN(C)CC2)cn1` [Example 213]: 94%; for `CCCNC(=O)Nc1cc(-c2nc(C(F)(F)F)cs2)c(-c2ccc3c(c2)c(=O)c(C(=O)NCCO)cn3CCC2CCOCC2)cn1` [Example 214, N-(2-hydroxyethyl)-4-oxo-6-(6-(3-propylureido)-4-(4-(trifluoromethyl)thiazol-2-yl)pyridin-3-yl)-1-(2-(tetrahydro-2H-pyran-4-yl)ethyl)-1,4-dihydroquinoline-3-carboxamide]: 118%; for `CC(C)NC(=O)Nc1cc(-c2nc(C(F)(F)F)cs2)c(-c2ccc3c(c2)c(=O)c(C(=O)NCCO)cn3CCC2CCN(C)CC2)cn1` [Example 216, N-(2-hydroxyethyl)-6-(6-(3-isopropylureido)-4-(4-(trifluoromethyl)thiazol-2-yl)pyridin-3-yl)-1-(2-(1-methylpiperidin-4-yl)ethyl)-4-oxo-1,4-dihydroquinoline-3-carboxamide]: 109%. The same measure for `CCCNC(=O)Nc1cc(-c2nc(C(F)(F)F)cs2)c(-c2ccc3c(c2)c(=O)c(C(=O)NCCN(C)C)cn3CCN(C)C)cn1` [Example 219, N,1-bis(2-(dimethylamino)ethyl)-4-oxo-6-(6-(3-propylureido)-4-(4-(trifluoromethyl)thiazol-2-yl)pyridin-3-yl)-1,4-dihydroquinoline-3-carboxamide]: 86%; for `CC(C)NC(=O)Nc1cc(-c2nc(C(F)(F)F)cs2)c(-c2ccc3c(c2)c(=O)c(C(=O)NCCN(C)C)cn3CCC2CCN(C)CC2)cn1` [Example 226]: 94%.

On to `CC(C)NC(=O)Nc1cc(-c2nc(C(F)(F)F)cs2)c(-c2ccc3c(c2)c(=O)c(C(=O)NCCN(C)C)cn3CCN2CCN(C)CC2)cn1` [Example 227, N-(2-(dimethylamino)ethyl)-6-(6-(3-isopropylureido)-4-(4-(trifluoromethyl)thiazol-2-yl)pyridin-3-yl)-1-(2-(4-methylpiperazin-1-yl)ethyl)-4-oxo-1,4-dihydroquinoline-3-carboxamide], for which the inhibition at 1 µM came to 91%. The same measure for `CCCNC(=O)Nc1cc(-c2nc(C(F)(F)F)cs2)c(-c2ccc3c(c2)c(=O)c(C(=O)NCCN(C)C)cn3CCC2CCOCC2)cn1` [Example 232, N-(2-(dimethylamino)ethyl)-4-oxo-6-(6-(3-propylureido)-4-(4-(trifluoromethyl)thiazol-2-yl)pyridin-3-yl)-1-(2-(tetrahydro-2H-pyran-4-yl)ethyl)-1,4-dihydroquinoline-3-carboxamide]: 98%; for `CCNC(=O)Nc1cc(-c2nc(C(F)(F)F)cs2)c(-c2ccc3c(c2)c(=O)c(C(=O)O)cn3C[C@@H]2CCN(CCN3CCOCC3)C2)cn1` [Example 237, (R)-6-(6-(3-ethylureido)-4-(4-(trifluoromethyl)thiazol-2-yl)pyridin-3-yl)-1-((1-(2-morpholinoethyl)pyrrolidin-3-yl)methyl)-4-oxo-1,4-dihydroquinoline-3-carboxylic acid]: 103%. The value for `CCNC(=O)Nc1cc(-c2nc(C(F)(F)F)cs2)c(-c2ccc3c(c2)c(=O)c(C(=O)O)cn3C[C@H]2CCN(CCN3CCOCC3)C2)cn1` [Example 238, (S)-6-(6-(3-ethylureido)-4-(4-(trifluoromethyl)thiazol-2-yl)pyridin-3-yl)-1-((1-(2-morpholinoethyl)pyrrolidin-3-yl)methyl)-4-oxo-1,4-dihydroquinoline-3-carboxylic acid] was 97%; that for `CCNC(=O)Nc1cc(-c2nc(C(F)(F)F)cs2)c(-c2ccc3c(c2)c(=O)c(C(=O)O)cn3C[C@@H]2CCCNC2)cn1` [Example 242, (R)-1-((1-piperidin-3-yl)methyl)-6-(6-(3-ethylureido)-4-(4-(trifluoromethyl)thiazol-2-yl)pyridin-3-yl)-4-oxo-1,4-dihydroquinoline-3-carboxylic acid] was 104%; that for `CCNC(=O)Nc1cc(-c2nc(C(F)(F)F)cs2)c(-c2ccc3c(c2)c(=O)c(C(=O)O)cn3C[C@H]2CCNC2)cn1` [Example 243, (S)-6-(6-(3-ethylureido)-4-(4-(trifluoromethyl)thiazol-2-yl)pyridin-3-yl)-4-oxo-1-(pyrrolidin-3-ylmethyl)-1,4-dihydroquinoline-3-carboxylic acid] was 116%. The same measure for `CCNC(=O)Nc1cc(-c2nc(C(F)(F)F)cs2)c(-c2ccc3c(c2)c(=O)c(C(=O)O)cn3[C@@H]2CCNC2)cn1` [Example 244, (R)-6-(6-(3-ethylureido)-4-(4-(trifluoromethyl)thiazol-2-yl)pyridin-3-yl)-4-oxo-1-(pyrrolidin-3-yl)-1,4-dihydroquinoline-3-carboxylic acid]: 111%; for `CCNC(=O)Nc1cc(-c2nc(C(F)(F)F)cs2)c(-c2ccc3c(c2)c(=O)c(C(=O)O)cn3[C@H]2CCCNC2)cn1` [Example 245, (S)-6-(6-(3-ethylureido)-4-(4-(trifluoromethyl)thiazol-2-yl)pyridin-3-yl)-4-oxo-1-(piperidin-3-yl)-1,4-dihydroquinoline-3-carboxylic acid]: 105%; for `CCNC(=O)Nc1cc(-c2nc(C(F)(F)F)cs2)c(-c2ccc3c(c2)c(=O)c(C(=O)O)cn3[C@@H]2CCN(C)C2)cn1` [Example 246, (R)-6-(6-(3-ethylureido)-4-(4-(trifluoromethyl)thiazol-2-yl)pyridin-3-yl)-1-(1-methylpyrrolidin-3-yl)-4-oxo-1,4-dihydroquinoline-3-carboxylic acid]: 104%. Take `CCNC(=O)Nc1cc(-c2nc(C(F)(F)F)cs2)c(-c2ccc3c(c2)c(=O)c(C(=O)O)cn3C[C@@H]2CCCN(C)C2)cn1` [Example 247, (R)-6-(6-(3-ethylureido)-4-(4-(trifluoromethyl)thiazol-2-yl)pyridin-3-yl)-1-((1-methylpiperidin-3-yl)methyl)-4-oxo-1,4-dihydroquinoline-3-carboxylic acid]: the inhibition at 1 µM was determined as 115%. With `CCNC(=O)Nc1cc(-c2nc(C(F)(F)F)cs2)c(-c2ccc3c(c2)c(=O)c(C(=O)O)cn3[C@H]2CCCN(C)C2)cn1` [Example 248, (S)-6-(6-(3-ethylureido)-4-(4-(trifluoromethyl)thiazol-2-yl)pyridin-3-yl)-1-(1-methylpiperidin-3-yl)-4-oxo-1,4-dihydroquinoline-3-carboxylic acid], the inhibition at 1 µM was found to be 103%. In the case of `CCNC(=O)Nc1cc(-c2nc(C(F)(F)F)cs2)c(-c2ccc3c(c2)c(=O)c(C(=O)O)cn3C[C@H]2CCN(CC)C2)cn1` [Example 249, (S)-1-((1-ethylpyrrolidin-3-yl)methyl)-6-(6-(3-ethylureido)-4-(4-(trifluoromethyl)thiazol-2-yl)pyridin-3-yl)-4-oxo-1,4-dihydroquinoline-3-carboxylic acid], the inhibition at 1 µM came out at 113%. Turning to `CCNC(=O)Nc1cc(-c2nc(C(F)(F)F)cs2)c(-c2ccc3c(c2)c(=O)c(C(=O)O)cn3[C@@H]2CCN(CC)C2)cn1` [Example 250, (R)-1-(1-ethylpyrrolidin-3-yl)-6-(6-(3-ethylureido)-4-(4-(trifluoromethyl)thiazol-2-yl)pyridin-3-yl)-4-oxo-1,4-dihydroquinoline-3-carboxylic acid], the inhibition at 1 µM turned out to be 112%. The same measure for `CCNC(=O)Nc1cc(-c2nc(C(F)(F)F)cs2)c(-c2ccc3c(c2)c(=O)c(C(=O)O)cn3C[C@@H]2CCCN(CC)C2)cn1` [Example 251, (R)-1-((1-ethylpiperidin-3-yl)methyl)-6-(6-(3-ethylureido)-4-(4-(trifluoromethyl)thiazol-2-yl)pyridin-3-yl)-4-oxo-1,4-dihydroquinoline-3-carboxylic acid]: 113%; for `CCNC(=O)Nc1cc(-c2nc(C(F)(F)F)cs2)c(-c2ccc3c(c2)c(=O)c(C(=O)O)cn3[C@@H]2CCCN(CC)C2)cn1` [Example 252, (R)-1-(1-ethylpiperidin-3-yl)-6-(6-(3-ethylureido)-4-(4-(trifluoromethyl)thiazol-2-yl)pyridin-3-yl)-4-oxo-1,4-dihydroquinoline-3-carboxylic acid]: 105%. The same measure for `CCNC(=O)Nc1cc(-c2nc(C(F)(F)F)cs2)c(-c2ccc3c(c2)c(=O)c(C(=O)O)cn3CC(C)N(C)C)cn1` (stereo not shown) [Example 277, 1-(2-(dimethylamino)propyl)-6-(6-(3-ethylureido)-4-(4-(trifluoromethyl)thiazol-2-yl)pyridin-3-yl)-4-oxo-1,4-dihydroquinoline-3-carboxylic acid]: 103%; for `CCNC(=O)Nc1cc(-c2nc(C(F)(F)F)cs2)c(-c2ccc3c(c2)c(=O)c(C(=O)O)cn3[C@@H]2CCCC[C@H]2O)cn1` [Example 278, 6-(6-(3-ethylureido)-4-(4-(trifluoromethyl)thiazol-2-yl)pyridin-3-yl)-1-((1R,2R)-2-hydroxycyclohexyl)-4-oxo-1,4-dihydroquinoline-3-carboxylic acid]: 101%; for `CCNC(=O)Nc1cc(-c2nc(C(F)(F)F)cs2)c(-c2ccc3c(c2)c(=O)c(C(=O)O)cn3[C@H]2CCCC[C@@H]2O)cn1` [Example 279, 6-(6-(3-ethylureido)-4-(4-(trifluoromethyl)thiazol-2-yl)pyridin-3-yl)-1-((1S,2S)-2-hydroxycyclohexyl)-4-oxo-1,4-dihydroquinoline-3-carboxylic acid]: 103%. The value for `CCNC(=O)Nc1cc(-c2nc(C(F)(F)F)cs2)c(-c2ccc3c(c2)c(=O)c(C(=O)O)cn3[C@H]2CCCN(CCS(C)(=O)=O)C2)cn1` [Example 280, (S)-ethyl 6-(6-(3-ethylureido)-4-(4-(trifluoromethyl)thiazol-2-yl)pyridin-3-yl)-1-(1-(2-(methylsulfonyl)ethyl)piperidin-3-yl)-4-oxo-1,4-dihydroquinoline-3-carboxylic acid] was 103%.
